Data set [1] in a line: Solubility of BPR0C261 in different carriers or mixed carriers. It counts as physicochemical. As to conditions: room temperature. Here is the method: The solubility of BPR0C261 in different drug carriers or mixed carriers was evaluated. The solubility is defined as the maximum amount of a compound dissolved in a carrier or mixed carrier at room temperature.
The nature of data set [2]: Oral bioavailability of BPR0C261 (po vs IV PK profiles, plasma by HPLC-Tandem Mass spectrometry). It counts as in vivo. As to conditions: mouse, 2 mg/kg, po by gavage, read-out: Oral bioavailability (F %). Here is the method: The oral bioavailability of BPR0C261 was assessed by comparing the pharmacokinetic (“PK”) profiles obtained from orally administered (“po”) BPR0C261 in various oral formulation described herein with the PK profile obtained from intravenously administered (“IV”) BPR0C261.
An intravenous formulation of BPR0C261 (carriers: 5% DMSO, 25% Cremophor EL, and 70% water, v/v/v) was administered intravenously by a bolus injection to a group of three mice each via the tail vein, in a single dose of 2 mg/Kg body weight. A blood sample (0.15 mL) was drawn at different points (pre-dose, 2 min, 5 min, 15 min, 30 min. 1 hr, 2 hr, 4 hr, 6 hr, 8 hr, and 24 hr after dosing) from each animal via the cardiac puncture and stored in ice (0-5° C.). […]
Plasma was separated from the blood sample by centrifugation at 15,000 g for 15 min at 4° C. […] All plasma samples were analyzed for the BPR0C261 concentrations by HPLC-Tandem Mass spectrometry.
BPR0C261 plasma concentration data were used to obtain the PK profile for the IV or po administration, i.e., a plasma-concentration vs. time curve. The area under the curve (“AUC”) was then calculated. Oral bioavailability (F %) was determined by comparing the dose-normalized area under the curve for the oral formulation (“AUCpo/dosepo”) with that for the intravenous formulation (“AUCIV/doseIV”), i.e., F %=[AUCpo/dosepo]/[AUCIV/doseIV].

Converted amounts (≈) assume the structure as drawn. Read-outs that look alike come from different tables or passages of the source. A value given as a limit tells only on which side of the number the result lay.

As a reminder, the solubility is the concentration that dissolves in the medium under given conditions. For orientation: bioavailability means the share of a dose that reaches the circulation, judged against a reference dose that is usually intravenous. Take `Cc1cc(Cn2cc(C(=O)C(=O)Nc3cc(C)ns3)c3ccccc32)on1` [BPR0C261, N-(3-methylisothiazol-5-yl)-2-[1-(3-methylisoxazol-5-ylmethyl)-1H-indol-3-yl]-2-oxoacetamide]: the solubility in data set [1] (aqueous with cosolvent or surfactant or cyclodextrin, carrier 3: DMSO (20%), Tween 80 (10%), and DDW (70%)) is < 5000 µg/mL; in data set [1] (aqueous with cosolvent or surfactant or cyclodextrin, carrier 13: DMSO (5%), Cremophor EL (25%), and DDW (70%)) it was < 5000 µg/mL; in data set [1] (aqueous with cosolvent or surfactant or cyclodextrin, carrier 14: Methylcellulose (1%), Tween 80 (2%), PEG 400 (10%), and DDW (87%)), < 1000 µg/mL; in data set [1] (carrier 1: Double distilled water (DDW)) it was ~0.12 µg/mL (≈ 0.000315 mM); in data set [1] (organic solvent or mixture, carrier 2: DMSO) it was ~5000 µg/mL (≈ 13.1 mM); in data set [1] (organic solvent or mixture, carrier 4: Ethanol (3%), Glycerol (2%), PEG 400 (70%), PG (20%), and Transcutol (5%)), 10000 to 30000 µg/mL (≈ 26.3 to 78.9 mM). For the same compound, the solubility in data set [1] (organic solvent or mixture, carrier 5: Glycerol (5%) and PEG 400 (95%)) is 10000 to 30000 µg/mL (≈ 26.3 to 78.9 mM); in data set [1] (organic solvent or mixture, carrier 6: TPGS (20%) and PEG 400 (80%)), 10000 to 30000 µg/mL (≈ 26.3 to 78.9 mM); in data set [1] (organic solvent or mixture, carrier 7: Transcutol (10%) and PEG 400 (90%)), 10000 to 30000 µg/mL (≈ 26.3 to 78.9 mM); in data set [1] (organic solvent or mixture, carrier 8: DMSO (10%), PEG 400 (80%), and propylene glycol (10%)) it was 10000 to 30000 µg/mL (≈ 26.3 to 78.9 mM); in data set [1] (organic solvent or mixture, carrier 9: Transcutol (10%), Cremophor EL (20%), and PEG 400 (70%)), 10000 to 30000 µg/mL (≈ 26.3 to 78.9 mM); in data set [1] (organic solvent or mixture, carrier 10: TPGS (20%), Transcutol (20%), and PEG 400 (60%)), ~50000 µg/mL (≈ 131 mM). Moreover, the solubility in data set [1] (organic solvent or mixture, carrier 11: TPGS (40%), Transcutol (20%), and PEG 400 (40%)) was ~50000 µg/mL (≈ 131 mM); in data set [1] (organic solvent or mixture, carrier 12: TPGS (75%) and Transcutol (25%)), ~50000 µg/mL (≈ 131 mM). The bioavailability in data set [2] (formulation containing 5% DMSO, 25% Cremophor EL, and 70% water (v/v/v), vs IV 2 mg/Kg) was 18%; in data set [2] (formulations containing TPGS, Transcutol, and optionally PEG 400, vs IV 2 mg/Kg), 25 to 80%.

The values above are taken from US8026271B2, “Formulations of indol-3-yl-2-oxoacetamide compounds” (National Health Research Institutes, priority 2008, dated 2011).
